We go through four molecules from publication PMC12846068, “Insights into Transport Function of the Murine Organic Anion-Transporting Polypeptide OATP1B2 by Comparison with Its Rat and Human Orthologues” (Toxics, 2025).

As usually defined, the Km is the concentration of substrate that gives half-maximal velocity.

One data set addresses T1, mOATP1B2 (Mus musculus, UniProt Q9JJL3).
T1 construct: The full-length mOATP1B2 and rOATP1B2 consist of 689 and 678 amino acids
T1 sequence (Q9JJL3 1-689): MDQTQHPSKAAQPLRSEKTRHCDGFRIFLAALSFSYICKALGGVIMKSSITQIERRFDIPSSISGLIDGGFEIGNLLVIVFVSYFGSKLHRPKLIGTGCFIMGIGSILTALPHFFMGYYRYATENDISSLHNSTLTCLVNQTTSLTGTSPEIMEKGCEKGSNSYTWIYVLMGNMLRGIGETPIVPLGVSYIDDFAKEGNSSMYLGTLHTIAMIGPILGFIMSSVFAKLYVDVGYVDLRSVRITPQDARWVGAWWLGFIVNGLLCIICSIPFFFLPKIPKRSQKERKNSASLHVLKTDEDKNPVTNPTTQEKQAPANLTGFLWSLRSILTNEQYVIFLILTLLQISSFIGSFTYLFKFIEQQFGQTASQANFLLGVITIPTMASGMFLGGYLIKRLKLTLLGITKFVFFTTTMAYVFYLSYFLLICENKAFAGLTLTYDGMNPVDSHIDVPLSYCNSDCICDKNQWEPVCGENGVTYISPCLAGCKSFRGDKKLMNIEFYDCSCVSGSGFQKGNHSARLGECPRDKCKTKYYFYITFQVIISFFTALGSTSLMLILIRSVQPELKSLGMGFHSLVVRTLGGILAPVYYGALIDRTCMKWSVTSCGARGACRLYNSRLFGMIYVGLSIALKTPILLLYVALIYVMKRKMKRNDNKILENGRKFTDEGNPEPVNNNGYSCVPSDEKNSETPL
Kind of data set: cis-inhibition of mOATP1B2-mediated E1S or TCA uptake in HEK293 cells. It counts as cell-based. The method, then: Inhibition experiments with mOATP1B2 and rOATP2B1 were carried out in triplicate as cis-inhibition. […] Inhibitory effects were calculated as a percentage of the net-uptake rates. […] The means ± average deviation (AD, for N = 2) were calculated from two experiments on two different days. The significance as a p-value was calculated using Student's t-test in Microsoft Excel.

Another data set addresses T2, rOATP1B2 (Rattus norvegicus, UniProt Q9QZX8).
T2 construct: The full-length mOATP1B2 and rOATP1B2 consist of 689 and 678 amino acids
T2 sequence (Q9QZX8 1-687): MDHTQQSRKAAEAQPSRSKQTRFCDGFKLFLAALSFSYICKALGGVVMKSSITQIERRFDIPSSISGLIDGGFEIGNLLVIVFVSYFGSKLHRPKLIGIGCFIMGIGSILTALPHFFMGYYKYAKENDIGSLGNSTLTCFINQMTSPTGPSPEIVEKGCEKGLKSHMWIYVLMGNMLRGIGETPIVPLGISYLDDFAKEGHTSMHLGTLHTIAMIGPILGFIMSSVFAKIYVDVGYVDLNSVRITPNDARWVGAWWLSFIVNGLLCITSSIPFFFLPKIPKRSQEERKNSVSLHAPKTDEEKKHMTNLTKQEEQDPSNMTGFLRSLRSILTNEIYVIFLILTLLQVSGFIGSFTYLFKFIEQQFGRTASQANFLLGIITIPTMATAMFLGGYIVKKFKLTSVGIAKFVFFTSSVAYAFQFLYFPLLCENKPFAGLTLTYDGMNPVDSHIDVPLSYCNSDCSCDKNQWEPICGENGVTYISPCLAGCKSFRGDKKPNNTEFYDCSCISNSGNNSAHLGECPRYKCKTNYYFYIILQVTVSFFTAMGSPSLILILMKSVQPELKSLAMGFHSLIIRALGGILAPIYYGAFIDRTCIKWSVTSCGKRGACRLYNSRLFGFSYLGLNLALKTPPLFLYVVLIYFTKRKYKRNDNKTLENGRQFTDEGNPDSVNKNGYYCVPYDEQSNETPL
Kind of data set: cis-inhibition of rOATP1B2-mediated E1S or TCA uptake in HEK293 cells. It counts as cell-based.

In a further data set the target is T3, hOATP1B1 (Homo sapiens, UniProt Q9Y6L6).
T3 sequence (Q9Y6L6 1-691): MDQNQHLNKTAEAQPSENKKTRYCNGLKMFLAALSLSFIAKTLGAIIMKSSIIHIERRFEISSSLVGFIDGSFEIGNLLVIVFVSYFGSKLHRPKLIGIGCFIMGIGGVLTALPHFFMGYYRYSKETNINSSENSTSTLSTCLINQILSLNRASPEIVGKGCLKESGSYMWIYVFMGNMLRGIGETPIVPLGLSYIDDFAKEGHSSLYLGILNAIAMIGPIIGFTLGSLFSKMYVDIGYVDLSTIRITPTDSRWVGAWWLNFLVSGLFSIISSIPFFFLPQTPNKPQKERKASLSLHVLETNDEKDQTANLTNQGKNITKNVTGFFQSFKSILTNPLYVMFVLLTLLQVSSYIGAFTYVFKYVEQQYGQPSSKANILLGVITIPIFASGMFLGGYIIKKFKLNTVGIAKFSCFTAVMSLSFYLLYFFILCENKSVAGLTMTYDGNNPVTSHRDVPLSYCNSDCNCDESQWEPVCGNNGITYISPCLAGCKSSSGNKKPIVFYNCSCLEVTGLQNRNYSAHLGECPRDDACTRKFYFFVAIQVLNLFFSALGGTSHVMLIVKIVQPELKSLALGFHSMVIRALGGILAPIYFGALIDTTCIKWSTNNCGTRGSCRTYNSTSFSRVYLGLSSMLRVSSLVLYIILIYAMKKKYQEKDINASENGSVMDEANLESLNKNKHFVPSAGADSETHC
Kind of data set: cis-inhibition of hOATP1B1-mediated E1S uptake in HEK293 cells. The format is cell-based. To be noted: 10 µM drug, 0.01 µM [3H]-E1S, 1 min. Also on record: expressed in transfected cells; host or cells: HEK-293, stably transfected. The protocol: (§1) Inhibitory effects were calculated as a percentage of the net-uptake rates.
(§2) The means ± average deviation (AD, for N = 2) were calculated from two experiments on two different days. The significance as a p-value was calculated using Student’s t-test in Microsoft Excel.

A further data set concerns the target T4, hOATP1B3 (Homo sapiens, UniProt Q9NPD5).
T4 sequence (Q9NPD5 1-702): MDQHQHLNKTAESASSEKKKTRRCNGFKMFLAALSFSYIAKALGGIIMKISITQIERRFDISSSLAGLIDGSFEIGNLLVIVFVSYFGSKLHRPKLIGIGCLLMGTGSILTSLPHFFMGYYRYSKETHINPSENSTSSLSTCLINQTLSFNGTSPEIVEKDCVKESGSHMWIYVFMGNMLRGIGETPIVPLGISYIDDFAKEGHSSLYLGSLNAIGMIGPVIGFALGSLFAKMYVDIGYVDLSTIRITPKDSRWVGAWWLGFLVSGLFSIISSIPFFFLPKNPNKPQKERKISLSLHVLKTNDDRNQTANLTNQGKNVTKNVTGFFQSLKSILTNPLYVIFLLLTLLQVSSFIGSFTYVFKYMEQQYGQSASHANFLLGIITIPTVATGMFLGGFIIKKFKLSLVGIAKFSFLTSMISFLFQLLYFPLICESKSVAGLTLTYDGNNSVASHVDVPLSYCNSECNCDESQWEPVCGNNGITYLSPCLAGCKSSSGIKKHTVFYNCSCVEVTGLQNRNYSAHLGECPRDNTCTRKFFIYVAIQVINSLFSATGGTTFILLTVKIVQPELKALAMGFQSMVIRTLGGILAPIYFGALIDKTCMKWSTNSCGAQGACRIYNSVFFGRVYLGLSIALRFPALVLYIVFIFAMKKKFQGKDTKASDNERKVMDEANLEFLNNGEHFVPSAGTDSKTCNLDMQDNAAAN
Kind of data set: cis-inhibition of hOATP1B3-mediated TCA uptake in HEK293 cells. Also on record: expressed in transfected cells; host or cells: HEK-293, stably transfected. Particulars: 10 µM drug, 1 µM TCA, 10 min. The format is cell-based. The method, then: as §1, §2

Substrate in data set [1]: C[C@H](CCC(=O)NCCS(=O)(=O)O)[C@H]1CC[C@H]2[C@@H]3[C@H](O)C[C@@H]4C[C@H](O)CC[C@]4(C)[C@H]3C[C@H](O)[C@]12C
Kind of data set: cells, lysate or membranes. To be noted: 1 min, 37 °C, increasing unlabeled substrate with 10 nM 3H-substrate, pH 7.4.

[2] abbreviates: HEK293, 10 µM drug, 1 µM [3H]-E1S, 1 min, read-out: Inhibitory effect on mOATP1B2-mediated E1S uptake.
The mark [3] stands for this setting: HEK293, read-out: Inhibitory effect on mOATP1B2-mediated TCA uptake, 10 µM drug, 1 µM [3H]-TCA, 1 min.
[4] abbreviates: HEK293, 10 µM drug, 1 µM [3H]-E1S, 1 min, read-out: Inhibitory effect on rOATP1B2-mediated E1S uptake.
Setting [5] is: HEK293, read-out: Inhibitory effect on rOATP1B2-mediated TCA uptake, 10 µM drug, 1 µM [3H]-TCA, 1 min.
Setting [6] is: 10 µM drug, substrates E1S and TCA not separated.

Read-outs that look alike come from different tables or passages of the source.

Regarding `CC(C)c1nc(CN(C)C(=O)N[C@H](C(=O)N[C@@H](Cc2ccccc2)C[C@H](O)[C@H](Cc2ccccc2)NC(=O)OCc2cncs2)C(C)C)cs1` [Ritonavir, ritonavir], the inhibition at 10 µM at mOATP1B2 (setting [2]) is 74%; at mOATP1B2 (setting [3]), 71%; on rOATP1B2 (setting [4]) it was 84%; on rOATP1B2 (setting [5]), 78%; on rOATP1B2 (HEK293, read-out: Inhibitory effect on rOATP1B2-mediated substrate uptake (summary over E1S and TCA), 10 µM drug, substrates E1S and TCA not separated) it was above 70%.

Take `CCCc1nc(C(C)(C)O)c(C(=O)O)n1Cc1ccc(-c2ccccc2-c2nnn[nH]2)cc1` [Olmesartan, olmesartan]: the “Inhibitory effect on mOATP1B2-mediated substrate uptake (summary over E1S and TCA)” value at mOATP1B2 (setting [6]) was “below 50%”. Besides, the inhibition at 10 µM stood at 18% on mOATP1B2 (setting [2]), 25% at mOATP1B2 (setting [3]), 27% on rOATP1B2 (setting [4]) and 32% at rOATP1B2 (setting [5]). Further, the “Inhibitory effect on hOATP1B1-mediated E1S uptake” value on hOATP1B1 is on record as 18%; on hOATP1B1 (listed as olmesartan), “less than 50%”. Besides, the “Inhibitory effect on hOATP1B3-mediated TCA uptake” value on hOATP1B3 is on record as 29%; on hOATP1B3 (listed as olmesartan), “less than 50%”. Further, the “Inhibitory effect on rOATP1B2-mediated substrate uptake (summary over E1S and TCA)” value on rOATP1B2 (setting [6]) is “below 50%”.

B1: mOATP1B2 (Mus musculus) (protein)
chain: MDQTQHPSKAAQPLRSEKTRHCDGFRIFLAALSFSYICKALGGVIMKSSITQIERRFDIPSSISGLIDGGFEIGNLLVIVFVSYFGSKLHRPKLIGTGCFIMGIGSILTALPHFFMGYYRYATENDISSLHNSTLTCLVNQTTSLTGTSPEIMEKGCEKGSNSYTWIYVLMGNMLRGIGETPIVPLGVSYIDDFAKEGNSSMYLGTLHTIAMIGPILGFIMSSVFAKLYVDVGYVDLRSVRITPQDARWVGAWWLGFIVNGLLCIICSIPFFFLPKIPKRSQKERKNSASLHVLKTDEDKNPVTNPTTQEKQAPANLTGFLWSLRSILTNEQYVIFLILTLLQISSFIGSFTYLFKFIEQQFGQTASQANFLLGVITIPTMASGMFLGGYLIKRLKLTLLGITKFVFFTTTMAYVFYLSYFLLICENKAFAGLTLTYDGMNPVDSHIDVPLSYCNSDCICDKNQWEPVCGENGVTYISPCLAGCKSFRGDKKLMNIEFYDCSCVSGSGFQKGNHSARLGECPRDKCKTKYYFYITFQVIISFFTALGSTSLMLILIRSVQPELKSLGMGFHSLVVRTLGGILAPVYYGALIDRTCMKWSVTSCGARGACRLYNSRLFGMIYVGLSIALKTPILLLYVALIYVMKRKMKRNDNKILENGRKFTDEGNPEPVNNNGYSCVPSDEKNSETPL
As for B1, the Km in data set [1] (other: mOATP1B2-HEK293, net uptake) is on record as 73 ± 11 µM.

B2: rOATP1B2 (Rattus norvegicus) (protein)
chain: MDHTQQSRKAAEAQPSRSKQTRFCDGFKLFLAALSFSYICKALGGVVMKSSITQIERRFDIPSSISGLIDGGFEIGNLLVIVFVSYFGSKLHRPKLIGIGCFIMGIGSILTALPHFFMGYYKYAKENDIGSLGNSTLTCFINQMTSPTGPSPEIVEKGCEKGLKSHMWIYVLMGNMLRGIGETPIVPLGISYLDDFAKEGHTSMHLGTLHTIAMIGPILGFIMSSVFAKIYVDVGYVDLNSVRITPNDARWVGAWWLSFIVNGLLCITSSIPFFFLPKIPKRSQEERKNSVSLHAPKTDEEKKHMTNLTKQEEQDPSNMTGFLRSLRSILTNEIYVIFLILTLLQVSGFIGSFTYLFKFIEQQFGRTASQANFLLGIITIPTMATAMFLGGYIVKKFKLTSVGIAKFVFFTSSVAYAFQFLYFPLLCENKPFAGLTLTYDGMNPVDSHIDVPLSYCNSDCSCDKNQWEPICGENGVTYISPCLAGCKSFRGDKKPNNTEFYDCSCISNSGNNSAHLGECPRYKCKTNYYFYIILQVTVSFFTAMGSPSLILILMKSVQPELKSLAMGFHSLIIRALGGILAPIYYGAFIDRTCIKWSVTSCGKRGACRLYNSRLFGFSYLGLNLALKTPPLFLYVVLIYFTKRKYKRNDNKTLENGRQFTDEGNPDSVNKNGYYCVPYDEQSNETPL
Turning to B2, the Michaelis constant (Km) in data set [1] (other: rOATP1B2-HEK293, net uptake) is recorded as 16 ± 3 µM.
